# In patent US12139499B2, “Heteroaryl compounds for treating Huntington's disease” (PTC THERAPEUTICS, INC., priority 2018, dated 2024):
# pIC50: −log10 of the molar value.
# Tested on: Endogenous Huntingtin Protein
# Assay: Endogenous Huntingtin Protein Assay (ELISA-based MSD electrochemiluminescence)
# Format: cell-based
# Details: Table 1
# Protocol: Compounds of Formula (I) or Formula (II) were tested using the Meso Scale Discovery (MSD) Assay provided in International Application No. PCT/US2016/066042, filed on Dec. 11, 2016 and claiming priority to U.S. Provisional Application 62/265,652 filed on Dec. 10, 2015, the entire contents of which are incorporated herein by reference.
# The Endogenous Huntingtin Protein assay used in Example 1 was developed using the ELISA-based MSD electrochemiluminescence assay platform.
# Endogenous Huntingtin Protein Assay
# Meso Scale Discovery (MSD) 96-well or 384-well plates were coated overnight at 4° C. with MW1 (expanded polyglutamine) or MAB2166 monoclonal antibody (for capture) at a concentration of 1 μg/mL in PBS (30 μL per well). Plates were then washed three times with 300 μL wash buffer (0.05% Tween-20 in PBS) and blocked (100 μL blocking buffer; 5% BSA in PBS) for 4-5 hours at room temperature with rotational shaking and then washed three times with wash buffer.
# Samples (25 μL) were transferred to the antibody-coated MSD plate and incubated overnight at 4° C. After removal of the lysates, the plate was washed three times with wash buffer, and 25 μL of #5656S (Cell signaling; rabbit monoclonal) secondary antibody (diluted to 0.25 μg/mL in 0.05% Tween-20 in blocking buffer) was added to each well and incubated with shaking for 1 Hour at room temperature. Following incubation with the secondary antibody, the wells were rinsed with wash buffer after which 25 μL of goat anti-rabbit SULFO TAG secondary detection antibody (required aspect of the MSD system) (diluted to 0.25 μg/mL in 0.05% Tween-20 in blocking buffer) was added to each well and incubated with shaking for 1 hour at room temperature. After rinsing three times with wash buffer, 150 μL of read buffer T with surfactant (MSD) were added to each empty well, and the plate was imaged on a SI 6000 imager (MSD) according to manufacturers' instructions provided for 96- or 384-well plates.
row,Molecule,pIC50
1,"5-{2-[(1,5-dimethyl-8-azabicyclo[3.2.1]oct-3-yl)(methyl)amino][1,3]thiazolo[5,4-d]pyrimidin-5-yl)-2-methyl-2H-indazole-7-carbonitrile [Compound 254]",≥ 7.00
2,"Cn1cc2cc(-c3ccc4nc(C5=CCNCC5)sc4c3)ccc2n1 [Compound 1, 6-(2-methyl-2H-indazol-5-yl)-2-(1,2,3,6-tetrahydropyridin-4-yl)-1,3-benzothiazole]",6.30 to 7.00
3,"Cn1cc2cc(-c3ccc4nc(C5CCNCC5)sc4c3)ccc2n1 [Compound 2, 6-(2-methyl-2H-indazol-5-yl)-2-(piperidin-4-yl)-1,3-benzothiazole]",6.30 to 7.00
4,"CN1CC=C(c2nc3ccc(-c4ccc5nn(C)cc5c4)cc3s2)CC1 [Compound 3, 6-(2-methyl-2H-indazol-5-yl)-2-(1-methyl-1,2,3,6-tetrahydropyridin-4-yl)-1,3-benzothiazole]",6.00 to 6.30
5,"Cn1cc2cc(-c3nc4ccc(C5=CCNCC5)cc4s3)ccc2n1 [Compound 4, 2-(2-methyl-2H-indazol-5-yl)-6-(1,2,3,6-tetrahydropyridin-4-yl)-1,3-benzothiazole]",6.30 to 7.00
6,"Cn1cc2cc(-c3nc4ccc(C5CCNCC5)cc4s3)ccc2n1 [Compound 5, 2-(2-methyl-2H-indazol-5-yl)-6-(piperidin-4-yl)-1,3-benzothiazole]",6.00 to 6.30
7,"CN1CC=C(c2ccc3nc(-c4ccc5nn(C)cc5c4)sc3c2)CC1 [Compound 6, 2-(2-methyl-2H-indazol-5-yl)-6-(1-methyl-1,2,3,6-tetrahydropyridin-4-yl)-1,3-benzothiazole]",5.52 to 6.00
8,"Cn1cc2cc(-c3ccc4nc(N5CCNCC5)sc4c3)ccc2n1 [Compound 7, 6-(2-methyl-2H-indazol-5-yl)-2-(piperazin-1-yl)-1,3-benzothiazole]",5.52 to 6.00
9,"CN(c1nc2ccc(-c3ccc4nn(C)cc4c3)cc2s1)C1CCNCC1 [Compound 8, N-methyl-6-(2-methyl-2H-indazol-5-yl)-N-(piperidin-4-yl)-1,3-benzothiazol-2-amine]",6.30 to 7.00
10,"CN1CCC(c2nc3ccc(-c4ccc5nn(C)cc5c4)cc3s2)CC1 [Compound 9, 6-(2-methyl-2H-indazol-5-yl)-2-(1-methylpiperidin-4-yl)-1,3-benzothiazole]",5.52 to 6.00
11,"CN1CCC(c2ccc3nc(-c4ccc5nn(C)cc5c4)sc3c2)CC1 [Compound 10, 2-(2-methyl-2H-indazol-5-yl)-6-(1-methylpiperidin-4-yl)-1,3-benzothiazole]",5.52 to 6.00
12,"CN(c1ccc2nc(-c3ccc4nn(C)cc4c3)sc2c1)C1CCNCC1 [Compound 11, N-methyl-2-(2-methyl-2H-indazol-5-yl)-N-(piperidin-4-yl)-1,3-benzothiazol-6-amine]",5.52 to 6.00
13,"CN(c1nc2ncc(-c3ccc4nn(C)cc4c3)cc2s1)C1CCNCC1 [Compound 12, N-methyl-6-(2-methyl-2H-indazol-5-yl)-N-(piperidin-4-yl)[1,3]thiazolo[4,5-b]pyridine-2-amine]",5.52 to 6.00
14,"Cc1cc(-c2cnc3nc(N(C)C4CCNCC4)sc3c2)cc2cn(C)nc12 [Compound 13, 6-(2,7-dimethyl-2H-indazol-5-yl)-N-methyl-N-(piperidin-4-yl)[1,3]thiazolo[4,5-b]pyridin-2-amine]",6.00 to 6.30
15,"Cc1cc(-c2cnc3nc(NC4CCNCC4)sc3c2)cc2cn(C)nc12 [Compound 14, 6-(2,7-dimethyl-2H-indazol-5-yl)-N-(piperidin-4-yl)[1,3]thiazolo[4,5-b]pyridin-2-amine]",5.52 to 6.00
16,"Cn1cc2cc(-c3cnc4nc(NC5CCNCC5)sc4c3)ccc2n1 [Compound 15, 6-(2-methyl-2H-indazol-5-yl)-N-(piperidin-4-yl)[1,3]thiazolo[4,5-b]pyridin-2-amine]",5.52 to 6.00
17,"CN(c1nc2ncc(-c3ccc4nn(C)cc4c3)cc2s1)C1CC(C)(C)NC(C)(C)C1 [Compound 16, N-methyl-6-(2-methyl-2H-indazol-5-yl)-N-(2,2,6,6-tetramethylpiperidin-4-yl)[1,3]thiazolo[4,5-b]pyridin-2-amine]",6.00 to 6.30
18,"Cc1cc(-c2cnc3nc(N(C)C4CC(C)(C)NC(C)(C)C4)sc3c2)cc2cn(C)nc12 [Compound 17, 6-(2,7-dimethyl-2H-indazol-5-yl)-N-methyl-N-(2,2,6,6-tetramethylpiperidin-4-yl)[1,3]thiazolo[4,5-b]pyridin-2-amine]",6.30 to 7.00

row,Molecule,pIC50
1,"Cc1cc(-c2ccc3nc(C4=CCNCC4)sc3c2)cc2cn(C)nc12 [Compound 18, 6-(2,7-dimethyl-2H-indazol-5-yl)-2-(1,2,3,6-tetrahydropyridin-4-yl)-1,3-benzothiazole]",6.30 to 7.00
2,"Cn1cc2cc(-c3nc4ncc(C5=CCNCC5)cc4s3)ccc2n1 [Compound 19, 2-(2-methyl-2H-indazol-5-yl)-6-(1,2,3,6-tetrahydropyridin-4-yl)[1,3]thiazolo[4,5-b]pyridine]",6.30 to 7.00
3,"CN(c1nc2ccc(-c3ccc4nn(C)cc4c3)cc2s1)C1CC(C)(C)NC(C)(C)C1 [Compound 20, N-methyl-6-(2-methyl-2H-indazol-5-yl)-N-(2,2,6,6-tetramethylpiperidin-4-yl)-1,3-benzothiazol-2-amine]",≥ 7.00
4,"Cc1cc(-c2ccc3nc(N(C)C4CC(C)(C)NC(C)(C)C4)sc3c2)cc2cn(C)nc12 [Compound 21, 6-(2,7-dimethyl-2H-indazol-5-yl)-N-methyl-N-(2,2,6,6-tetramethylpiperidin-4-yl)-1,3-benzothiazol-2-amine]",6.30 to 7.00
5,"Cc1cc(-c2ccc3nc(C4CCNCC4)sc3c2)cc2cn(C)nc12 [Compound 22, 6-(2,7-dimethyl-2H-indazol-5-yl)-2-(piperidin-4-yl)-1,3-benzothiazole]",≥ 7.00
6,"CN(c1nc2c(F)cc(-c3ccc4nn(C)cc4c3)cc2s1)C1CC(C)(C)NC(C)(C)C1 [Compound 23, 4-fluoro-N-methyl-6-(2-methyl-2H-indazol-5-yl)-N-(2,2,6,6-tetramethylpiperidin-4-yl)-1,3-benzothiazol-2-amine]",≥ 7.00
7,"Cc1cc(-c2cc(F)c3nc(N(C)C4CC(C)(C)NC(C)(C)C4)sc3c2)cc2cn(C)nc12 [Compound 24, 6-(2,7-dimethyl-2H-indazol-5-yl)-4-fluoro-N-methyl-N-(2,2,6,6-tetramethylpiperidin-4-yl)-1,3-benzothiazol-2-amine]",≥ 7.00
8,"CN(c1nc2ccc(-c3ccc4nn(C)cc4c3)nc2s1)C1CC(C)(C)NC(C)(C)C1 [Compound 25, N-methyl-5-(2-methyl-2H-indazol-5-yl)-N-(2,2,6,6-tetramethylpiperidin-4-yl)[1,3]thiazolo[5,4-b]pyridin-2-amine]",6.30 to 7.00
9,"CN(c1nc2ccc(-c3ccc4nn(C)cc4c3)nc2s1)C1CCNCC1 [Compound 26, N-methyl-5-(2-methyl-2H-indazol-5-yl)-N-(piperidin-4-yl)[1,3]thiazolo[5,4-b]pyridin-2-amine]",6.00 to 6.30
10,"CN(c1nc2cnc(-c3ccc4nn(C)cc4c3)cc2s1)C1CCNCC1 [Compound 27, N-methyl-6-(2-methyl-2H-indazol-5-yl)-N-(piperidin-4-yl)[1,3]thiazolo[4,5-c]pyridin-2-amine]",6.00 to 6.30
11,"CN(C)C1CCN(c2nc3ccc(-c4ccc5nn(C)cc5c4)cc3s2)CC1 [Compound 28, N,N-dimethyl-1-[6-(2-methyl-2H-indazol-5-yl)-1,3-benzothiazol-2-yl]piperidin-4-amine]",5.52 to 6.00
12,"Cn1cc2cc(-c3ccc4nc(N5CCC(N)CC5)sc4c3)ccc2n1 [Compound 29, 1-[6-(2-methyl-2H-indazol-5-yl)-1,3-benzothiazol-2-yl]piperidin-4-amine]",5.52 to 6.00
13,"Cc1cc(-c2cc3sc(N(C)C4CCNCC4)nc3cn2)cc2cn(C)nc12 [Compound 30, 6-(2,7-dimethyl-2H-indazol-5-yl)-N-methyl-N-(piperidin-4-yl)[1,3]thiazolo[4,5-c]pyridin-2-amine]",6.30 to 7.00
14,"Cc1cc(-c2cc3sc(N(C)C4CC(C)(C)NC(C)(C)C4)nc3cn2)cc2cn(C)nc12 [Compound 31, 6-(2,7-dimethyl-2H-indazol-5-yl)-N-methyl-N-(2,2,6,6-tetramethylpiperidin-4-yl)[1,3]thiazolo[4,5-c]pyridin-2-amine]",≥ 7.00
15,"CN(c1nc2cnc(-c3ccc4nn(C)cc4c3)cc2s1)C1CC(C)(C)NC(C)(C)C1 [Compound 32, N-methyl-6-(2-methyl-2H-indazol-5-yl)-N-(2,2,6,6-tetramethylpiperidin-4-yl)[1,3]thiazolo[4,5-c]pyridin-2-amine]",≥ 7.00
16,"Cc1cn2cc(-c3ccc4nc(N(C)C5CC(C)(C)NC(C)(C)C5)sc4c3)cc(C)c2n1 [Compound 33, 6-(2,8-dimethylimidazo[1,2-a]pyridin-6-yl)-N-methyl-N-(2,2,6,6-tetramethylpiperidin-4-yl)-1,3-benzothiazol-2-amine]",≥ 7.00
17,"CN(c1nc2ccc(-c3ccc4[nH]ncc4c3)cc2s1)C1CC(C)(C)NC(C)(C)C1 [Compound 34, 6-(1H-indazol-5-yl)-N-methyl-N-(2,2,6,6-tetramethylpiperidin-4-yl)-1,3-benzothiazol-2-amine]",6.30 to 7.00
